# Reference: patent US6964983B2, “Compounds that modulate PPAR activity and methods for their preparation” (Warner-Lambert Company, LLC, priority 2002, dated 2005)
# Tests used:
# [1] = biological target: T1, hPPARβ (Homo sapiens, UniProt Q03181); test: Transient transfection assay in HepG2 cells, Gal4-hPPARβ chimeric receptor, luciferase reporter; assay type: cell-based; settings: Hep G2-hBeta EC50, 24 hours incubation; read-out: EC50β nM (Group)
# T1 sequence (Q03181 171-441 limits assumed): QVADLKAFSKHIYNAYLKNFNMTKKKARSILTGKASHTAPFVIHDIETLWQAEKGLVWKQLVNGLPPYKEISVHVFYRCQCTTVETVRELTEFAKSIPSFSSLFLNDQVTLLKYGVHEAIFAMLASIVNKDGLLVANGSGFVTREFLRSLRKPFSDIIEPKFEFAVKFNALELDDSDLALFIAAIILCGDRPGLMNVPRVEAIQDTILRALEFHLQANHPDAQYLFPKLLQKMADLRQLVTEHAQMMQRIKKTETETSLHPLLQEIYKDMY
# Procedure: (§1) 1. Test A. Transient Transfections Assay using the HepG2 Hepatoma Cell Line.
# (§2) HepG2 cells were transiently transfected with an expression plasmids encoding hPPARα, hPPARβ or mPPARγ chimeric receptors and a reporter containing the yeast upstream activating sequence (UAS) upstream of the viral E1B promoter controlling a luciferase reporter gene. In addition, the plasmid pRSVβ-gal was used to control for transfection efficiency. HepG2 cells were grown in DMEM supplemented with 10% FBS and 1 μM non-essential amino acid. On the first day, cells were split into 100 mm dishes at 2.5×10^6/dish and incubated overnight at 37° C./5% CO2. On the second day the cells were transiently transfected with plasmid DNA encoding a chimeric receptor, the luciferase reporter gene; and β-gal. For each 100 mm dish, 15 μg of lucifease reporter (PG5E1b) DNA, 15 μg of Gal4-PPAR chimeric receptor DNA, and 1.5 μg of β-gal plasmid DNA were mixed with 1.4 ml of opti-MEM in the tube. 28 μl of LipoFectamine-2000 reagent was added to 1.4 ml of opti-MEM in the tube, and incubate for 5 min at RT. The diluted Lipofectamine-2000 reagent was combined with the DNA mixture, and incubate for 20 min at RT. After fresh medium was added to each 100 mm dish of cells, 2.8 ml of Lipofectamine2000-DNA mixture was added dropwise to the 100 mm dish containing 14 ml of medium, and incubate 37° C. overnight. On day three cells were trypsinized off the 100 mm dishes and re-plated on 96 well plates. Cells were plated at 2.5×10^4 cells per well in 150 μl of media and 50 μl of compound diluted by media was added. The test compound added were in the range from 50 μM to 50 pM. After addition of compounds, the plates were incubated at 37° C. for 24 hours. Subsequently cells were washed with once with 100 μl of PBS, lysed, and processed for measuring luciferase and β-gal activity using Dual-Light luciferase kit from Tropix ®, according to the manufacturer's recommendations, on an EG&G Bethold MicroLumat LB96P luminometer. EC50 values were obtained using the GraphPad Prism™ program.
# [2] = biological target: T2, hPPARα (Homo sapiens, UniProt Q07869); test: Transient transfection assay in HepG2 cells, Gal4-hPPARα chimeric receptor, luciferase reporter; assay type: cell-based; settings: Hep G2-hAlpha EC50, 24 hours incubation; read-out: EC50α nM (Group)
# T2 sequence (Q07869 200-468 limits assumed): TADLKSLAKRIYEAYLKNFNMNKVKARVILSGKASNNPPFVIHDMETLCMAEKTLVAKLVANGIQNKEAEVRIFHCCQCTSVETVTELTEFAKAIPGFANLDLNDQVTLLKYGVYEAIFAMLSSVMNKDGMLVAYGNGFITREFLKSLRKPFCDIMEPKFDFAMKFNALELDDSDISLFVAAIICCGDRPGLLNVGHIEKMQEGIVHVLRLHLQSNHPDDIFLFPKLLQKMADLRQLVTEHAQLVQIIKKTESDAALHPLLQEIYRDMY
# Procedure: as §1, §2
EC50 [1] [nM],EC50 [2] [nM],melting point,Compound
< 300,< 300,60 to 62 °C,"COc1cc(OCC(=O)O)c(C)cc1SCc1ccc(-c2ccccc2)cc1 [Example 1, [4-(Biphenyl-4-ylmethylsulfanyl)-5-methoxy-2-methyl-phenoxy]-acetic acid]"
< 300,< 300,138 to 139 °C,"COc1cc(OCC(=O)O)c(C)cc1SCc1ccc(-c2cccc(C(F)(F)F)c2)cc1 [Example 9, [5-Methoxy-2-methyl-4-(3′-trifluoromethyl-biphenyl-4-ylmethylsulfanyl)-phenoxy]-acetic acid]"
–,< 300,145 °C,"COc1cc(OCC(=O)O)c(C)cc1SCc1ccc(OCc2ccc(C(F)(F)F)cc2)cc1 [Example 14, {5-Methoxy-2-methyl-4-[4-(4-trifluoromethyl-benzyloxy)-benzylsulfanyl]-phenoxy}-acetic acid]"
< 300,< 300,92 to 94 °C,"COc1cc(OCC(=O)O)c(C)cc1SCc1cccc(-c2cccc(OC(F)(F)F)c2)c1 [Example 16, [5-Methoxy-2-methyl-4-(3′-trifluoromethoxy-biphenyl-3-ylmethylsulfanyl)-phenoxy]-acetic acid]"
< 300,> 5000,225 °C (dec.),"COc1cc(OCC(=O)O)c(C)cc1SCc1ccc(-c2ccc(C(F)(F)F)cn2)cc1 [Example 18, {5-Methoxy-2-methyl-4-[4-(5-trifluoromethyl-pyridin-2-yl)-benzylsulfanyl]-phenoxy}-acetic acid]"
< 300,< 300,203 °C (dec.),"COc1cc(OCC(=O)O)c(C)cc1SCc1ccc(-c2ccc(C(F)(F)F)cc2)nc1 [Example 19, {5-Methoxy-2-methyl-4-[6-(4-trifluoromethyl-phenyl)-pyridin-3-ylmethylsulfanyl]-phenoxy}-acetic acid]"
< 300,2000 to 5000,161 to 162 °C,"Cc1cc(SCc2ccc(-c3ccc(C(F)(F)F)cc3)cc2)c(Cl)cc1OCC(=O)O [Example 20, [5-Chloro-2-methyl-4-(4′-trifluoromethyl-biphenyl-4-ylmethylsulfanyl)-phenoxy]-acetic acid]"
1000 to 2000,500 to 1000,132 to 134 °C,"Cc1cc(SCCc2ccc(-c3ccc(C(F)(F)F)cc3)cc2)ccc1OCC(=O)O [Example 22, {2-Methyl-4-[2-(4′-trifluoromethyl-biphenyl-4-yl)-ethylsulfanyl]-phenoxy}-acetic acid]"
< 300,< 300,169 to 171 °C,"COc1cc(OCC(=O)O)c(C)cc1SCCc1ccc(-c2ccc(C(F)(F)F)cc2)cc1 [Example 23, {5-Methoxy-2-methyl-4-[2-(4′-trifluoromethyl-biphenyl-4-yl)-ethylsulfanyl]-phenoxy}-acetic acid]"
2000 to 5000,1000 to 2000,174 to 176 °C,"Cc1cc(CCc2ccc(-c3ccc(C(F)(F)F)cc3)cc2)ccc1OCC(=O)O [Example 25, {2-Methyl-4-[2-(4′-trifluoromethyl-biphenyl-4-yl)-ethyl]-phenoxy}-acetic acid]"
2000 to 5000,500 to 1000,186 °C,"Cc1cc(SCc2ccc(-c3ccc(C(F)(F)F)cn3)cc2)c2c(c1OCC(=O)O)CCC2 [Example 27, {5-Methyl-7-[4-(5-trifluoromethyl-pyridin-2-yl)-benzylsulfanyl]-indan-4-yloxy}-acetic acid]"
1000 to 2000,1000 to 2000,177 °C,"Cc1cc(SCc2ccc(-c3ccc(C(F)(F)F)cc3)cc2)c2c(c1OCC(=O)O)CCC2 [Example 28, [5-Methyl-7-(4′-trifluoromethyl-biphenyl-4-ylmethylsulfanyl)-indan-4-yloxy]-acetic acid]"
< 300,< 300,154 °C (dec.),"COc1cc(OCC(=O)O)c(C)cc1SCc1ccc(/C=C/c2cccc(F)c2)cc1 [Example 29, (4-{4-[2-(3-Fluoro-phenyl)-vinyl]-benzylsulfanyl}-5-methoxy-2-methyl-phenoxy)-acetic acid]"
> 5000,1000 to 2000,139 to 141 °C,"Cc1cc(SCc2ccc(OCc3ccc(F)cc3F)cc2)ccc1OCC(=O)O [Example 31, {4-[4-(2,4-Difluoro-benzyloxy)-benzylsulfanyl]-2-methyl-phenoxy}-acetic acid]"
300 to 500,1000 to 2000,143 to 145 °C,"Cc1cc(SCc2ccc(OCc3ccc(Cl)cc3Cl)cc2)ccc1OCC(=O)O [Example 32, {4-[4-(2,4-Dichloro-benzyloxy)-benzylsulfanyl]-2-methyl-phenoxy}-acetic acid]"
1000 to 2000,1000 to 2000,150 to 152 °C,"COc1ccc(COc2ccc(CSc3ccc(OCC(=O)O)c(C)c3)cc2)cc1 [Example 33, {4-[4-(4-Methoxy-benzyloxy)-benzylsulfanyl]-2-methyl-phenoxy}-acetic acid]"
< 300,< 300,135 to 137 °C,"Cc1cc(SCc2ccc(OCc3ccc(C(C)(C)C)cc3)cc2)ccc1OCC(=O)O [Example 34, {4-[4-(4-tert-Butyl-benzyloxy)-benzylsulfanyl]-2-methyl-phenoxy}-acetic acid]"
300 to 500,< 300,141 to 142 °C,"Cc1cc(SCc2ccc(OCc3ccc(OC(F)(F)F)cc3)cc2)ccc1OCC(=O)O [Example 35, {2-Methyl-4-[4-(4-trifluoromethoxy-benzyloxy)-benzylsulfanyl]-phenoxy}-acetic acid]"
2000 to 5000,< 300,156 to 157 °C,"Cc1cc(SCc2ccc(-c3ccc(C(F)(F)F)cn3)cc2)c2c(c1OCC(=O)O)CCCO2 [Example 36, {6-Methyl-8-[4-(5-trifluoromethyl-pyridine-2-yl)-benzylsulfanyl]-chroman-5-yloxy}-acetic acid]"
< 300,300 to 500,–,"COc1cc(OCC(=O)O)c(C)cc1SCc1cccc(-c2ccc(C(F)(F)F)cc2)c1 [Example 49, [5-Methoxy-2-methyl-4-(4′-trifluoromethyl-biphenyl-3-ylmethylsulfanyl)-phenoxy]-acetic acid]"
< 300,500 to 1000,–,"CCCc1cc(SCc2ccc(-c3ccc(C(F)(F)F)cc3)cc2)ccc1OCC(=O)O [Example 52, [2-Propyl-4-(4′-trifluoromethyl-biphenyl-4-ylmethylsulfanyl)-phenoxy]-acetic acid]"
< 300,1000 to 2000,–,"O=C(O)COc1ccc(SCc2cccc(-c3ccc(C(F)(F)F)cn3)c2)c2c1CCC2 [Example 53, {7-[3-(5-Trifluoromethyl-pyridin-2-yl)-benzylsulfanyl]-indan-4-yloxy}-acetic acid]"
2000 to 5000,1000 to 2000,154 to 155 °C,"Cc1cc(SCc2ccc(OCc3ccc(F)cc3)cc2)ccc1OCC(=O)O [Example 57, {4-[4-(4-Fluoro-benzyloxy)-benzylsulfanyl]-2-methyl-phenoxy}-acetic acid]"
–,2000 to 5000,145 °C,"O=C(O)COc1ccc(SCc2ccc(OCc3ccc(C(F)(F)F)cc3)cc2)c2c1CCC2 [Example 63, {7-[4-(4-Trifluoromethyl-benzyloxy)-benzylsulfanyl]-indan-4-yloxy}-acetic acid]"
–,> 5000,113 to 115 °C,"O=C(O)COc1ccc(SCc2cccc(OCc3ccc(C(F)(F)F)cc3)c2)c2c1CCCO2 [Example 84, {8-[3-(4-Trifluoromethyl-benzyloxy)-benzylsulfanyl]-chroman-5-yloxy}-acetic acid]"
